The target in one test is T1, human ALX receptor (Homo sapiens, UniProt P25090).
T1 construct: expressed in transfected cells; host or cells: HEK293 (HEK293-hALXR-Gα16)
T1 sequence (P25090 1-351): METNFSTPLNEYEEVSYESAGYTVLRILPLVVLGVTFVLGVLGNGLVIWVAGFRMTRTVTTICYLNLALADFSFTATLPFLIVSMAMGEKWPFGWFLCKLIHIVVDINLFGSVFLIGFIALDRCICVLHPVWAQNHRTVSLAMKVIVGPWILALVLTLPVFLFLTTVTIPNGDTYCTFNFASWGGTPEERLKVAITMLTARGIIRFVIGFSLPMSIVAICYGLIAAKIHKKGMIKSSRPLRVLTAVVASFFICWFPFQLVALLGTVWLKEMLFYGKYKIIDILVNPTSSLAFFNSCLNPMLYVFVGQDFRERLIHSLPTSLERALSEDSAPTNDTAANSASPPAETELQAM
Nature of the test: Intracellular calcium measurements (FLIPR), agonistic activity in HEK293-hALXR-Gα16 cells. The test is classed as cell-based. Conditions: Fluo-4 calcium FLIPR, normalized to WKYMVm 10 nM. In outline:
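Agonist-induced calcium flux was recorded by FLIPR (488/540 nm) in HEK293-hALXR-Gα16 cells pre-loaded with Fluo-4 AM (1 μM, 60 min, 37°C). Peak signal above baseline, after subtracting buffer addition, was expressed relative to WKYMVm at 10 nM final.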

A further test concerns the target T2, human FPRL2 (Homo sapiens, UniProt P25089).
T2 construct: expressed in transfected cells; host or cells: HEK293 (HEK293-hFPRL2-Gα16)
T2 sequence (P25089 1-353): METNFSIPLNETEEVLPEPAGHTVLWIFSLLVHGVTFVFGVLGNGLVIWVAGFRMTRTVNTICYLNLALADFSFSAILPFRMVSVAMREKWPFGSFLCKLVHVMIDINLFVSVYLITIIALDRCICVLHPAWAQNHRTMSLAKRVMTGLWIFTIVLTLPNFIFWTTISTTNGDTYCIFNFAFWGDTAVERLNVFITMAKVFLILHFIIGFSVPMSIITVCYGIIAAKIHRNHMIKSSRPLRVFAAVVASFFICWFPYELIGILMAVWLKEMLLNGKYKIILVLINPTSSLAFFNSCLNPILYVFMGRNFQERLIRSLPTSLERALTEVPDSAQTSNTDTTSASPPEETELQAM
Nature of the test: Intracellular calcium measurements (FLIPR), agonistic activity in HEK293-hFPRL2-Gα16 cells. The class given is cell-based. Conditions: Fluo-4 calcium FLIPR, normalized to GLY14-Humanin 100 nM. In outline:
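Peak values after baseline subtraction are expressed relative to 100 nM Gly14-Humanin; compounds diluted in assay buffer from 10 mM DMSO stocks.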
(Calcium flux is commonly read through the fluorescence of an indicator in the cells.)

In general, EC50 refers to the concentration needed to bring the measured effect to its halfway point.

Consider `NCCCCCNC(=O)C1C(C(=O)Nc2ncc(Br)s2)C2C=CC1C21CC1` [Example 322, (5R)—N^5-(5-Bromo-thiazol-2-yl)-(6R)—N^6-(5-amino-pentyl)-(4S,7R)-[4,7-ethenylene-spiro[2.4]heptane]-5,6-dicarboxamide], for which the figures for the EC50 on human ALX receptor and at human FPRL2 were 0.61 nM and 382 nM, respectively.

Regarding `O=C(NC1CCNCC1)[C@H]1[C@H](C(=O)Nc2ncc(Br)s2)[C@@H]2C=C[C@H]1C21CC1` [Example 323, (5R)—N^5-(5-Bromo-thiazol-2-yl)-(6R)—N^6-(piperidin-4-yl)-(4S,7R)-[4,7-ethenylene-spiro[2.4]heptane]-5,6-dicarboxamide], the EC50 at human ALX receptor was found to be 17 nM; on human FPRL2 it was 4690 nM.

As for `O=C(NCC1CCNCC1)C1C(C(=O)Nc2ncc(Br)s2)C2C=CC1C21CC1` [Example 324, (5R)—N^5-(5-Bromo-thiazol-2-yl)-(6R)—N^6-(piperidin-4-yl-methyl)-(4S,7R)-[4,7-ethenylene-spiro[2.4]heptane]-5,6-dicarboxamide], the EC50 is 5.7 nM on human ALX receptor and 1540 nM on human FPRL2.

In the case of `NCC1CCN(C(=O)[C@H]2[C@H](C(=O)Nc3ncc(Br)s3)[C@@H]3C=C[C@H]2C32CC2)CC1` [Example 325, (5R)—N^5-(5-Bromo-thiazol-2-yl)-(6R)—N^6,N^6-(3-(aminomethyl)pentane-1,5-diyl)-(4S,7R)-[4,7-ethenylene-spiro[2.4]heptane]-5,6-dicarboxamide], the EC50 is 19 nM on human ALX receptor and > 14100 nM at human FPRL2.

For `NCCCCCNC(=O)[C@H]1[C@H](C(=O)NCc2ccc(Br)cc2F)[C@@H]2CC[C@H]1C21CC1` [Example 326, (5R)—N^5-(4-Bromo-2-fluorophenyl-methyl)-(6R)—N^6-(5-amino-pentyl)-(4S,7R)-[4,7-ethylene-spiro[2.4]heptane]-5,6-dicarboxamide], the half-maximal effective concentration (EC50) was found to be 22 nM on human ALX receptor and 930 nM at human FPRL2.

Take `O=C(NCCCCN1CCCC1)[C@H]1[C@H](C(=O)NCc2ccc(Br)c(F)c2F)[C@@H]2C=C[C@H]1C21CC1` [Example 327, (5R)—N^5-(4-Bromo-2,3-difluorophenyl-methyl)-(6R)—N^6-(4-pyrrolidino-butyl)-(4S,7R)-[4,7-ethenylene-spiro[2.4]heptane]-5,6-dicarboxamide]: the EC50 at human ALX receptor was 40 nM; at human FPRL2, 27 nM.

`O=C(NCCCCN1CCCC1)[C@H]1[C@H](C(=O)NCc2cc(F)c(Br)c(F)c2)[C@@H]2C=C[C@H]1C21CC1` [Example 328, (5R)—N^5-(4-Bromo-3,5-difluorophenyl-methyl)-(6R)—N^6-(4-pyrrolidino-butyl)-(4S,7R)-[4,7-ethenylene-spiro[2.4]heptane]-5,6-dicarboxamide]: the values for the EC50 at human ALX receptor and at human FPRL2 were 46 nM and 60 nM, respectively.

Consider `O=C(NCCCCN1CCCC1)[C@H]1[C@H](C(=O)NCc2cc(F)c(Br)cc2F)[C@@H]2C=C[C@H]1C21CC1` [Example 329, (5R)—N^5-(4-Bromo-2,5-difluorophenyl-methyl)-(6R)—N^6-(4-pyrrolidino-butyl)-(4S,7R)-[4,7-ethenylene-spiro[2.4]heptane]-5,6-dicarboxamide], for which the EC50 on human ALX receptor came to 301 nM; at human FPRL2, 64 nM.

For `O=C(NC1CCNCC1)[C@H]1[C@H](C(=O)Nc2ncc(Br)s2)[C@@H]2CC[C@H]1C21CC1` [Example 330, (5R)—N^5-(5-Bromo-thiazol-2-yl)-(6R)—N^6-(piperidin-4-yl)-(4S,7R)-[4,7-ethylene-spiro[2.4]heptane]-5,6-dicarboxamide], the EC50 came to 24 nM at human ALX receptor and 4420 nM on human FPRL2.

For `CC(C)CNC(=O)[C@H]1[C@H](C(=O)Nc2ncc(Br)s2)[C@@H]2CC[C@H]1C21CC1` [Example 331, (5R)—N^5-(5-Bromo-thiazol-2-yl)-(6R)—N^6-(isobutyl)-(4S,7R)-[4,7-ethylene-spiro[2.4]heptane]-5,6-dicarboxamide], the values for the EC50 at human ALX receptor and at human FPRL2 were 82 nM and 8250 nM, respectively.

On to `CC(C)(C)OC(=O)NCCCCNC(=O)[C@H]1[C@H](C(=O)Nc2ncc(Br)s2)[C@@H]2CC[C@H]1C21CC1` [Example 332, (5R)—N^5-(5-Bromo-thiazol-2-yl)-(6R)—N^6-(4-tert-butoxycarbonyl-amino-butyl)-(4S,7R)-[4,7-ethylene-spiro[2.4]heptane]-5,6-dicarboxamide], for which the concentration giving a half-maximal response (EC50) on human ALX receptor is 467 nM; at human FPRL2, 3540 nM.

In the case of `CC(C)(C)OC(=O)NCCCCCNC(=O)C1C(C(=O)Nc2ncc(Br)s2)C2CCC1C21CC1` [Example 333, (5R)—N^5-(5-Bromo-thiazol-2-yl)-(6R)—N^6-(5-tert-butoxycarbonyl-amino-pentyl)-(4S,7R)-[4,7-ethylene-spiro[2.4]heptane]-5,6-dicarboxamide], the figures for the half-maximal effective concentration (EC50) on human ALX receptor and on human FPRL2 were 519 nM and 1240 nM, respectively.

Turning to `NCCCCCNC(=O)[C@H]1[C@H](C(=O)Nc2ncc(Br)s2)[C@@H]2CC[C@H]1C21CC1` [Example 334, (5R)—N^5-(5-Bromo-thiazol-2-yl)-(6R)—N^6-(5-amino-pentyl)-(4S,7R)-[4,7-ethylene-spiro[2.4]heptane]-5,6-dicarboxamide], the EC50 at human ALX receptor came to 0.45 nM; on human FPRL2, 230 nM.

`NCCCCNC(=O)[C@H]1[C@H](C(=O)Nc2ncc(Br)s2)[C@@H]2CC[C@H]1C21CC1` [Example 335, (5R)—N^5-(5-Bromo-thiazol-2-yl)-(6R)—N^6-(4-amino-butyl)-(4S,7R)-[4,7-ethylene-spiro[2.4]heptane]-5,6-dicarboxamide]: the concentration for a half-maximal effect (EC50) on human ALX receptor stood at 0.5 nM; on human FPRL2, 1300 nM.

For `NCC1CCN(C(=O)C2C(C(=O)Nc3ncc(Br)s3)C3CCC2C32CC2)CC1` [Example 336, (5R)—N^5-(5-Bromo-thiazol-2-yl)-(6R)—N^6,N^6-(3-(aminomethyl)pentane-1,5-diyl)-(4S,7R)-[4,7-ethylene-spiro[2.4]heptane]-5,6-dicarboxamide], the results for the EC50 at human ALX receptor and at human FPRL2 were 6.2 nM and 1490 nM, respectively.

As to `O=C(NCC1CCNCC1)[C@H]1[C@H](C(=O)Nc2ncc(Br)s2)[C@@H]2CC[C@H]1C21CC1` [Example 337, (5R)—N^5-(5-Bromo-thiazol-2-yl)-(6R)—N^6-(piperidin-4-yl-methyl)-(4S,7R)-[4,7-ethylene-spiro[2.4]heptane]-5,6-dicarboxamide], the values for the EC50 at human ALX receptor and on human FPRL2 were 7.3 nM and 1210 nM, respectively.

For the molecule `O=C(NCCCCN1CCCC1)[C@H]1[C@H](C(=O)Nc2cnc(Br)c(F)c2)[C@@H]2C=C[C@H]1C21CC1` [Example 338, (5R)—N^5-(2-Bromo-3-fluoro-pyridin-5-yl)-(6R)—N^6-(4-pyrrolidino-butyl)-(4S,7R)-[4,7-ethenylene-spiro[2.4]heptane]-5,6-dicarboxamide], the values for the EC50 at human ALX receptor and on human FPRL2 were 168 nM and 139 nM, respectively.

For `CC(C)(C)C1CCC(NC(=O)C2C(C(=O)NCCCCN3CCCC3)C3C=CC2C32CC2)CC1` (stereo not drawn) [Example 342, (5R*)—N^5-(4-tert-Butyl-cyclohexyl)-(6R*)—N^6-(4-pyrrolidino-butyl)-(4S*,7R*)-[4,7-ethenylene-spiro[2.4]heptane]-5,6-dicarboxamide], the EC50 is > 2390 nM at human ALX receptor and 100 nM at human FPRL2.

Take `Cc1ccc(CCNC(=O)C2C(C(=O)NCCCCN3CCCC3)C3C=CC2C32CC2)cc1` (stereo not drawn) [Example 381, (5R*)—N^5-(2-(4-Methylphenyl)ethyl)-(6R*)—N^6-(4-pyrrolidino-butyl)-(4S*,7R*)-[4,7-ethenylene-spiro[2.4]heptane]-5,6-dicarboxamide]: the EC50 at human ALX receptor stood at 3900 nM; on human FPRL2, 30 nM.

For `O=C(NCCCCN1CCCC1)C1C(C(=O)NCCc2ccc(F)cc2)C2C=CC1C21CC1` (stereo not drawn) [Example 382, (5R*)—N^5-(2-(4-Fluorophenyl)ethyl)-(6R*)—N^6-(4-pyrrolidino-butyl)-(4S*,7R*)-[4,7-ethenylene-spiro[2.4]heptane]-5,6-dicarboxamide], the EC50 on human ALX receptor came to 6360 nM; at human FPRL2, 52 nM.

For the molecule `CCOc1ccc(CNC(=O)C2C(C(=O)NCCCCN3CCCC3)C3C=CC2C32CC2)cc1` (stereo not drawn) [Example 386, (5R*)—N^5-(4-Ethoxyphenyl-methyl)-(6R*)—N^6-(4-pyrrolidino-butyl)-(4S*,7R*)-[4,7-ethenylene-spiro[2.4]heptane]-5,6-dicarboxamide], the EC50 on human ALX receptor was 2910 nM; at human FPRL2, 254 nM.

For the molecule `O=C(NCCCCN1CCCC1)[C@H]1[C@H](C(=O)NCCc2ccc(Cl)cc2)[C@@H]2C=C[C@H]1C21CC1` [Example 387, (5R)—N^5-(2-(4-Chlorophenyl)ethyl)-(6R)—N^6-(4-pyrrolidino-butyl)-(4S,7R)-[4,7-ethenylene-spiro[2.4]heptane]-5,6-dicarboxamide], the EC50 at human ALX receptor worked out at 8270 nM; at human FPRL2, 26 nM.

These data come from patent publication US8563714B2, “Bridged spiro [2.4] heptane derivatives as ALX receptor and/or FPRL2 agonists” (Actelion Pharmaceuticals Ltd., priority 2009, dated 2013).
